From patent US6566397B2, “Acyclic isoprenoid ether derivatives as chemotherapeutics” (Wisconsin Alumni Research Foundation, priority 2000, dated 2003)
Read-outs that look alike come from different tables or passages of the source.

What was measured:
[1] = system: pancreatic tumors implanted in Syrian Golden hamsters; conditions: 90 mmol/kg diet; cited from earlier work
[2] = system: implanted B16 melanomas; conditions: cited from earlier work
[3] = M364 dietary toxicity study in mice; type: in vivo, C57BL6 female mice
Method: M364 toxicity and efficacy studies are in progress. Weanling C57BL6 female mice (Harlan Sprague Dawley, Madison, Wis.) are housed in groups of five to six on Cellu-Dri bedding (Waldschmidt & Sons, Inc., Madison, Wis.) in stainless steel cages and maintained at 25° C. with a 12-hour light:dark cycle. Three groups of mice (11/group) are being fed AIN-93G diet supplemented with 0 (A, control), 1 (B) and 10 (C) mmol M364/kg diet. Food intakes for mice are recorded daily and mice are weighed on alternate days. Results to date are mixed. […] As a consequence, the body weight of these mice decreased from 13.6 to 11.7 g; on removing the agent (M364) from the diet the mice rapidly regained body weight.

[4] = system: Human HL-60 acute promyelocytic leukemia cells; assay: Growth of human HL-60 leukemia cells in suspension culture, viable cell count by hemocytometer; type: cell-based; conditions: human HL-60 promyelocytic leukemia cells, 24 hours; read-out: IC50, inhibition of net increase in cell count
Method: Human HL-60 acute promyelocytic leukemia cells (CCL-240, ATCC) were grown in suspension culture (25 cm^2 flasks) in 8 mL RPMI 1640 medium with 20% FBS and 2% penicillin/streptomycin. Cultures, seeded with 1.25×10^8 cells/L, were incubated with test agents for 24 hours at 37° C. in a humidified atmosphere of 5% CO2. The cells were then collected by centrifugation (250×g) and re-suspended in HBSS. Viable cells, cells that excluded 0.4% trypan blue, were counted with a hemocytometer; 0-time (seeding) cell counts were deducted from final cell counts to provide an estimate of the net increase in cell number.
(§1) The IC50 value represents the concentration of an isoprenoid required to inhibit the net increase in cell count by 50% at a time point within the linear growth period plotted for control cells. We determined the IC50 value by plotting cell number against isoprenoid concentration.

[5] = system: Murine B16 F10 melanoma cells; assay: Growth of murine B16 F10 melanoma cells in monolayer culture, viable cell count by hemocytometer, photomicrographs; type: cell-based; conditions: for apoptosis: 5 μmol/L, B16 melanoma cells, photomicrographs; for IC50: read-out: IC50, inhibition of net increase in cell count
Method: Murine B16 F10 melanoma cells (He, L., et al., supra, 1997) were grown in monolayer culture (35×10 mm tissue culture dishes) in 3 ml RPMI 1640 medium (Sigma Biosciences, St. Louis, Mo.) supplemented with 10% fetal bovine serum (FBS, Sigma Biosciences) and 2% penicillin/streptomycin (Penicillin-Streptomycin Liquid, 1×10^7 units penicilin and 1×10^7 μg streptomycin/L of 0.85% saline, GIBCO BRL, Grand Island, N.Y.). Cultures, seeded with 3.3×10^4 cells/mL, were incubated for 24 hours at 37° C. in a humidified atmosphere of 5% CO2. The medium was decanted and replaced with fresh medium containing the test agents and incubations were continued for 48 hours. M363 and M364 were dissolved in ethanol, and lovastatin (Mevinolin, Sigma) in chloroform. […] The medium and detached (apoptotic) cells were decanted, the monolayer was washed twice with Hanks' Balanced Salt Solution (HBSS, Sigma Biosciences) and then incubated with a trypsin-EDTA solution (Sigma Biosciences) at 37° C. for 2 minutes. Trypsin was inactivated by suspending the cells in medium containing 10% FBS. The trypsinized cells were harvested by centrifugation (250×g) and re-suspended in HBSS. Viable cells, cells that excluded 0.4% trypan blue (GIBCO BRL), were counted with a hemocytometer; 0-time (24-h) cell counts were deducted from final cell counts to provide an estimate of the net increase in cell number.
Photomicrographs (100×, 200× and 400×) of representative fields of cultures of B16 melanoma cells were made with a Labopot-2 microscope (Nikon, Japan) equipped with a SenSys digital camera (Photometrics Tucson, Ariz.) and image-acquisition software (MetaMorph Imaging Systems, Universal Imaging Corporation, West Chester, Pa.).
as §1

[6] = system: murine B16 melanoma cells
[7] = system: Murine B16(F10) melanoma cells; assay: CellTiter 96 Aqueous One Solution Cell Proliferation Assay; type: cell-based; conditions: 40 hour growth of B16 melanoma cells, 1000 cells/well; read-out: IC50, net absorbance at 490 nm
Method: Murine B16(F10) melanoma cells were grown in monolayer culture (96-well tissue culture plate, Fisher Scientific) in 0.1 mL of RPMI 1640 medium (Sigma) supplemented with 10% fetal bovine serum (Sigma) and 80 mg/L of gentamycin (Sigma). Cultures were seeded in triplicate (0 to 2450 cells/well with an increment of 350 cells) and incubated for 24 hours or 64 hours at 37° C. in a humidified atmosphere of 5% CO2. At 24 hours the medium was decanted from each well and replaced with fresh medium. Cell populations of all wells were determined at either 24 hours (0 time, 3 wells) or 64 hours (40 hours, all other wells) by adding 20 μl of CellTiter 96® Aqueous One Solution (Promega, Madison, Wis.) to each well; the plate was held in dart at 37° C. for 2 hours and then read at 490 nm with a SPECTRAmax® 190 multi-plate reader with SOFTmax® PRO (Molecular Devices, Sunnyvale, Calif.). The net absorbance, the difference between the 0 time and 40 hours values, plotted on cell inoculation density is linear to 2000 cells/well (FIG. 6). We then applied this optical method to the estimation of the IC50 for M364.
Plates seeded with 1000 cells/well, the midpoint of cell inoculation density (FIG. 6), were cultured as described above. The medium added at 24 hours (0 time) to experimental wells contained 0-10 μmol/L M364 ([4-(3,7,11-trimethyl-2,6,10-dodecatrienyloxy]-phenyl acetate).

[8] = Screening of acyclic isoprenoid esters for tumor-suppressive activity in vitro; type: cell-based
Excerpt: (§2) We synthesized and tested a series of esters formed between acyclic isoprenoid alcohols (geraniol, farnesol, nerol, citronellol) and diverse acids (proprionate, isobutyrate, formate, butyrate, caprylate, isovalerate, benzoate, tiglate, anthranilate). […] See Mo, et al. Cancer Letters 157:145-153, 2000 (incorporated by reference).

[9] = system: implanted B16 melanomas; assay: Growth of implanted B16 melanomas, agent in diet; type: in vivo
Excerpt: as §2
We note that the farnesyl moiety of the test agent comprised trans, trans and cis, trans isomers. […] The prospect of a chemotherapeutic application of […] is dimmed by findings that its very potent tumor-suppressive action is markedly attenuated by […], an essential dietary constituent (Qureshi, A., et al., J. Nutr. 126:389-394, 1996).

[10] = murine melanoma B16 cells, 48 hours, hemocytometer

**Q.** For `CC(C)=CCCC(C)=CCCC(C)=CCO` [farnesol], which “growth of implanted pancreatic tumors” value [1] is on record?
**A.** suppressed the growth

**Q.** Which “growth of implanted B16 melanomas” value ([2]; 0.116 mmol/kg diet) does the source give for `CC(C)=CCC/C(C)=C/CC/C(C)=C/CC[C@]1(C)CCc2cc(O)c(C)c(C)c2O1` [γ-tocotrienol] here?
**A.** suppressed the growth

**Q.** What about the “efficacy in suppressing growth of implanted melanomas relative to farnesol” value ([2]; <1 mmol/kg diet) of the same molecule?
**A.** ~100 ×

**Q.** Which results are given for `CC(=O)Oc1ccc(OCC=C(C)CCC=C(C)CCC=C(C)C)cc1` [M364, [4-(3,7,11-trimethyl-2,6,10-dodecatrienyloxy]-phenyl acetate]?
**A.** body weight and general appearance ([3]; 1 mmol M364/kg diet): match the controls; general condition of mice ([3]; 10 mmol M364/kg diet): remained healthy and active; food intake ([3]; 10 mmol M364/kg diet, 6 day exposure): decreased; body weight after exposure to diet ([3]; 10 mmol M364/kg diet, 6 day exposure, decreased from 13.6 g, regained on removing agent): 11.7 g; IC50 [4]: 4.9 ± 3.7 µM; apoptosis [5]: initiated apoptosis; suppression of cell growth ([5]; M364 1 μmol/L, B16 cells): 45%; IC50 [5, 10]: 2 ± 0.6 µM; increase in proportion of cells in G1 ([6]; M364 1 μmol/L): 33%; IC50 [7]: 2.2 µM

**Q.** For `CC(C)=CCC/C(C)=C/COC(=O)c1ccccc1` [geranyl benzoate], which “tumor-suppressive activity in vitro” value [8] is on record?
**A.** significant tumor-suppressive activity

**Q.** What does the source list for `CC(=O)Oc1ccc(OCC=C(C)CCC=C(C)C)cc1` [M363, [4-(3,7-dimethyl-2,6-octadienyloxy]-phenyl acetate]?
**A.** IC50 [4]: 58.6 ± 2.3 µM; apoptosis [5]: initiated apoptosis; IC50 [5, 10]: 5.1 ± 0.8 µM

**Q.** With `CC(C)=CCCC(C)=CCCC(C)=CCOC(=O)c1ccccc1` [farnesyl benzoate] as the molecule, how does the “tumor-suppressive activity in vitro” value [8] read?
**A.** significant tumor-suppressive activity

**Q.** With `CC(C)=CCCC(C)=CCCC(C)=CCOC(=O)c1ccccc1N` [farnesyl anthranilate] as the molecule, how does the IC50 [4] read?
**A.** 80 ± 10 µM

**Q.** And the “morphological changes of cells” value ([5]; 100 μmol/L, B16 cells, 400× photomicrograph FIG. 4F)?
**A.** morphological changes similar to those attained with 10 μmol M364

**Q.** And the IC50 ([5]; Mus musculus, 48 h)?
**A.** 45 ± 6 µM

**Q.** What about the “growth of implanted B16 melanomas” value ([9]; 1.5 mmol/kg diet) of the same molecule?
**A.** substantially suppressed the growth

**Q.** What about the “effect of dietary α-tocopherol on the agent's action” value ([9]; dietary α-tocopherol) of the same molecule?
**A.** did not compromise

**Q.** And the “tumor-suppressive activity in vitro” value [8]?
**A.** significant tumor-suppressive activity

**Q.** For `C/C=C(\C)C(=O)OC/C=C(\C)CCC=C(C)C` [geranyl tiglate], which “tumor-suppressive activity in vitro” value [8] is on record?
**A.** significant tumor-suppressive activity

**Q.** What does the source list for `CC[C@H](C)C(=O)O[C@H]1C[C@@H](C)C=C2C=C[C@H](C)[C@H](CC[C@@H]3C[C@@H](O)CC(=O)O3)[C@H]21` [lovastatin]?
**A.** suppression of cell growth ([5]; lovastatin 0.75 μmol/L, B16 cells): 25%; increase in portion of cells in G1 ([6]; lovastatin 0.75 μmol/L): 33%

**Q.** With `CC(C)=CCC/C(C)=C/COC(=O)c1ccccc1N` [geranyl anthranilate] as the molecule, how does the “tumor-suppressive activity in vitro” value [8] read?
**A.** significant tumor-suppressive activity

**Q.** With `C/C=C(\C)C(=O)OCC=C(C)CCC=C(C)CCC=C(C)C` [farnesyl tiglate] as the molecule, how does the “tumor-suppressive activity in vitro” value [8] read?
**A.** significant tumor-suppressive activity
